{"source": "patent US20120108464A1", "about": "“TEST SYSTEMS, METHODS AND USES INVOLVING AS160 PROTEIN” (SANOFI-AVENTIS, priority 2009, published 2012)", "key": {"[1]": {"tested_on": "L6-GLUT4myc cells containing AS160", "experiment": "Uptake of 2-deoxyglucose in response to insulin (Cytostar-T scintillating microplates)", "type": "cell-based, rat", "conditions": "FIG. 6", "description": "For all examples the L6-GLUT4myc cells containing AS160 were grown in MEMα (PAN) supplemented with 10% fetal calf serum (FCS) (PAA, tet-free), 2 μg/ml blasticidin (Calbiochem), 0.5 μg/ml puromycin (InvivoGen), 200 μg/ml hygromycin (Invitrogen). Expression of AS160 was induced with 1 μg/ml doxycyclin (Sigma). L6-wildtype (wt) (ATCC: CRL-1458) cells were grown in MEMα+GlutaMax (Gibco) supplemented with 10% FCS (PAA, tet-free) and 1% penicillin/streptomycin (PAA). L6-GLUT4myc cells were grown in MEMα+GlutaMax (Gibco) supplemented with 10% FCS (PAA, tet-free), 1% penicillin/streptomycin (PAA) and 2 μg/ml blasticidin (Calbiochem). Expression of AS160 was induced by inbubation of the cells for 48 hours with 1 μg/ml doxycycline (Sigma). All cells were grown at 37° C. and 5% CO2 L6-GLUT4myc cells containing AS160 were incubated in starve medium (MEMα) 3-4 hours prior to each experiment.\nTo examine glucose uptake of the cells, the respective cells were plated in 96 well Cytostar-T scintillating microplates (Amersham/GE). After 48 hours cells were serum-starved (3-4 hours) and treated with the indicated Insuman (human insulin) concentartions a for 20 minutes. […] Nonspecific uptake was determined in the presence of 40 μM cytochalasin B (Calbiochem). […] Uptake of 2-deoxyglucose is measured as counts per […] and presented as fold over basal. […]"}, "[2]": {"tested_on": "L6-GLUT4myc cells transiently transfected with pCDNA5/TO/GFP", "experiment": "Functionality of the T-REx system: tetracycline-inducible GFP expression plasmid", "type": "cell-based, rat", "conditions": "doxycycline 1 μg/ml versus absence of doxycycline", "description": "FIG. 4: Functionality of the T-Rex system. […]T4myc cells were transiently transfected with […] pCDNA5/TO/GFP. In the absence of doxycycline only a minor number of cells express GFP (A). Addition of doxycycline (1μg/ml) increases the number of GFP positive cells up to about 10 fold (B). L6 cells stably expressing GLUT4myc ([…]T4myc, described in Wang et al. 1998) were subsequently used for the tet-inducible expression of AS160 protein. For this purpose the T-REx system from Invitrogen was used. The regulatory plasmid in this system controls the constitutive expression of the tet-repressor (tet-R) under the control of a CMV (cytomegalovirus) promoter. In the absence of tetracyline (or doxycycline) the repressor binds to specific tetracycline-operator sequences (TetO2) and thereby represses expression. Addition of tetracycline (or doxycycline) induces expression of the protein of interest. To allow a stable integration of the tet-system in […]T4myc cells the tet-repressor was islolated from pCDNA3.1 (+)/TR (Invitrogen) and cloned into the Nhel and Notl sites of pIRESpuro2 (FIG. 3). Subsequently pIRESpuro2/TR was transfected into […]T4myc cells. Clones stably expressing the regulatory plasmid were selected with 0.5 μg/ml puromycin (InvivoGen). Functionality of the tet-repressor was controlled with a tetracycline-inducible GFP expression plasmid (pCDNA5/TO-GFP). […]"}}}
{"compound": "insulin: Insuman (human insulin)", "values": [{"measurement": "Uptake of 2-deoxyglucose, fold over basal", "setting": "[1]; with expression of AS160 (isoform 1, doxycycline-induced), 100 nM insulin, 20 minutes", "value": "about 6 fold"}, {"measurement": "Uptake of 2-deoxyglucose, fold over basal (maximum)", "setting": "[1]; without expression of AS160 (isoform 1), insulin 20 minutes", "value": "about 4 fold"}]}
{"compound": "C[C@H]1c2cccc(O)c2C(=O)C2=C(O)[C@]3(O)C(=O)C(C(N)=O)=C(O)[C@@H](N(C)C)[C@@H]3[C@@H](O)[C@@H]21", "note": "[doxycycline]", "values": [{"measurement": "Increase of the number of GFP positive cells", "setting": "[2]", "value": "about 10 fold"}]}
